# Paper PMC7709710 (Investigational new drugs, 2015)
# Key:
# advanced solid tumors = assay: Tumor response by RECIST 1.1; format: in vivo, human
# [1] = Plasma and urine pharmacokinetics in patients; format: in vivo, human
# Hsp70 protein = Hsp70 protein in PBMCs by Western blot; format: in vivo, human
# human xenograft models = conditions: several human xenograft models; cited from earlier work
# Hsp27 mRNA = Hsp27 mRNA by RT-PCR in paired tumor biopsies; format: in vivo, human; conditions: one patient, dose level 3 (80 mg/m^2/dose), pre-dose vs day 17 of cycle 1
# patients = conditions: cited from earlier work
# [2] = tested on: patients with advanced solid tumors; conditions: human, in vivo, 4 weeks
# Hsp90 client proteins = assay: Reverse phase protein array; format: in vivo, human
# Hsp70 mRNA = Hsp70 mRNA by RT-PCR in paired tumor biopsies; format: in vivo, human; conditions: one patient, dose level 3 (80 mg/m^2/dose), pre-dose vs day 17 of cycle 1
# Hsp90 = conditions: cited from earlier work
# [3] = pre- to post-treatment, RP2D, subgroup 1 (patients 21, 22, 31)
# [4] = pre- to post-treatment, RP2D, subgroup 2 (patients 28, 24, 30, 27, 29)
# [5] = subgroup 1 only (patients 21, 22, 31)
smiles,measurement,setting,value
CC(C)c1cc(C(=O)N2Cc3ccc(CN4CCN(C)CC4)cc3C2)c(O)cc1O [onalespib],tumor responses,advanced solid tumors; 31 patients treated,No responses were observed
same,longest time on study (one patient with hepatocellular carcinoma),advanced solid tumors; in vivo,6 cycles
same,urinary drug excretion,[1]; 24 h after drug administration,< 10%
same,plasma accumulation of drug with repeated dosing,[1]; day 1 vs day 15 of cycle 1,no significant plasma accumulation
same,plasma exposure to drug (AUC) versus dose,[1]; doses 20–210 mg/m^2,proportional to dose
same,half-life,"[1]; human, plasma, intravenous",~8 h
same,Hsp70 protein expression in PBMCs at dose level 1,"Hsp70 protein; Patient #1, dose level 1 (20 mg/m^2)",no increase in Hsp70 expression
same,Hsp70 protein expression in PBMC samples,Hsp70 protein; patients at dose levels 2 through 5 (RP2D),increased Hsp70 protein expression
same,"tumor growth inhibition, QDx2/week versus other schedules",human xenograft models,consistently greater tumor growth inhibition
same,induction of Hsp27 mRNA following treatment,Hsp27 mRNA,> 2 fold
same,patients with visual disturbances,patients; 120 mg/m^2/dose twice weekly,10 of 13
same,maximum-tolerated-dose,"patients; twice weekly dosing, days 1, 4, 8, 11, 15, 18 in 28 day cycles",120 mg/m^2/dose
same,recommended phase 2 dose (RP2D),[2],160 mg/m^2/dose
same,within-patient expression changes of 210 client proteins,"Hsp90 client proteins; 9 patients, RP2D, baseline vs cycle 1 day 16 or 17",no proteins with statistically significant changes
same,"CHK2, mean log2-normalized expression change: group 1",Hsp90 client proteins; [3],1.0062
same,"MAP2K2, mean log2-normalized expression change: group 1",Hsp90 client proteins; [3],−0.2937
same,"PRAS, mean log2-normalized expression change: group 1",Hsp90 client proteins; [3],0.3038
same,"RAB11A/B, mean log2-normalized expression change: group 1",Hsp90 client proteins; [3],−0.5853
same,"Raf-1, mean log2-normalized expression change: group 1",Hsp90 client proteins; [3],−0.2670
same,"STAT3, mean log2-normalized expression change: group 1",Hsp90 client proteins; [3],−0.6103
same,"STAT5A, mean log2-normalized expression change: group 1",Hsp90 client proteins; [3],0.5016
same,"c-Src, mean log2-normalized expression change: group 1",Hsp90 client proteins; [3],−0.5997
same,"eEF-2 kinase, mean log2-normalized expression change: group 1",Hsp90 client proteins; [3],0.9679
same,"serpin E1, mean log2-normalized expression change: group 1",Hsp90 client proteins; [3],−3.0031
same,"CHK2, mean log2-normalized expression change: group 2",Hsp90 client proteins; [4],0.1233
same,"MAP2K2, mean log2-normalized expression change: group 2",Hsp90 client proteins; [4],0.1770
same,"PRAS, mean log2-normalized expression change: group 2",Hsp90 client proteins; [4],−0.1004
same,"RAB11A/B, mean log2-normalized expression change: group 2",Hsp90 client proteins; [4],0.0826
same,"Raf-1, mean log2-normalized expression change: group 2",Hsp90 client proteins; [4],−0.0855
same,"STAT3, mean log2-normalized expression change: group 2",Hsp90 client proteins; [4],0.0176
same,"STAT5A, mean log2-normalized expression change: group 2",Hsp90 client proteins; [4],−0.0725
same,"c-Src, mean log2-normalized expression change: group 2",Hsp90 client proteins; [4],−0.0664
same,"eEF-2 kinase, mean log2-normalized expression change: group 2",Hsp90 client proteins; [4],−0.0370
same,"serpin E1, mean log2-normalized expression change: group 2",Hsp90 client proteins; [4],0.2094
same,decrease in CHK1 phosphorylation after treatment,Hsp90 client proteins; [5],> 2 fold
same,decrease in CHK2 phosphorylation after treatment,Hsp90 client proteins; [5],> 2 fold
same,induction of Hsp70 mRNA following treatment,Hsp70 mRNA,> 1.5 fold
same,Kd,Hsp90,0.71 nM
